Columns and labels:
U-937 (lymphoma) cells = assay: U-937 (lymphoma) cell death, PAC-1 with second agent; format: cell-based; conditions: 0-15 μM PAC-1, 0 nM second agent, 8 hours, FIG. 4
Method: FIG. 2. Effects of PAC-1 with Etoposide on U-937 (lymphoma) cell death. Dashed lines represent the level of purely additive effects.
FIG. 3. Effects of PAC-1 with Velcade® (bortezomib) on U-937 (lymphoma) cell death. […] Cell death was measured after 6 hours in bortezomib.
FIG. 4. Effects of PAC-1 with staurosporine on U-937 (lymphoma) cell death. […] Cell death was measured after 8 hours in staurosporine.

[1] = in mammals; cited from earlier work
[2] = more active than irinotecan itself; cited from earlier work

C=CCc1cccc(/C=N/NC(=O)CN2CCN(Cc3ccccc3)CC2)c1O [PAC-1, 2-(4-benzylpiperazin-1-yl)-N-[(2-hydroxy-3-prop-2-enyl-phenyl)methylideneamino]acetamide]
cell death with PAC-1 alone (U-937 (lymphoma) cells): Little or no cell death | safety [1]: safe

CCc1c2c(nc3ccc(O)cc13)-c1cc3c(c(=O)n1C2)COC(=O)[C@]3(O)CC [SN-38]
activity relative to irinotecan [2]: 200 times
